Results reported in patent US5476966A, “Method for depletion of glutathione” (Cornell Research Foundation, Inc., priority 1995, dated 1995).

Columns and labels:
[1] = test system: V79 cells; conditions: cited from earlier work
[2] = test system: glutathione; assay: Tissue glutathione levels after intraperitoneal administration of sulfoximines; format: in vivo, mouse; conditions: 2 mmol/Kg i.p.
Method: Male mice (Swiss Webster) were fasted overnight (about 16 hr). L-3-methylbuthionine-SR-sulfoximine (3 mBSO; L-S-3-methylbutyl homocysteine-SR-sulfoximine; L-S-isopentyl homocysteine-SR-sulfoximine), L-buthionine-SR-sulfoximine(BSO; L-S-butyl homocysteine-SR-sulfoximine), L-2-methylbuthiomine-SR-sulfoximine (2 mBSO, L-S-2methylbutyl homocysteine-SR-sulfoximine), or saline (0.9% NaCl) were administered to mice at 2 mmol/Kg intraperitoneally (50 mM, Ph ^~ 7). At the times indicated, plasma and tissues were obtained and assayed for glutathione (GSH+1/2 GSSG) as described by Anderson, Methods in Enzymology, 1985, 113:548-555.

[3] = test system: human lymphoid cell lines; conditions: cited from earlier work
[4] = test system: human ovarian cancer cells; conditions: cited from earlier work
[5] = test system: Trypanosoma brucei; conditions: six mice treated, cited from earlier work

CCCCS(=N)(=O)CCC(N)C(=O)O [BSO, L-S-butyl homocysteine-SR-sulfoximine]
oxygen enhancement ratio [1]: decrease of the oxygen enhancement ratio | sensitization to radiation ([1]; hypoxic conditions): sensitization to radiation under hypoxic conditions | % Decrease in glutathione ([2]; brain, 2 hr): 10% | Glutathione level ([2]; brain, 2 hr): 2.08 µmol/g | % Decrease in glutathione ([2]; brain, 12 hr): 17% | Glutathione level ([2]; brain, 12 hr): 1.93 µmol/g | % Decrease in glutathione ([2]; heart, 2 hr): 14% | Glutathione level ([2]; heart, 2 hr): 1.16 µmol/g | % Decrease in glutathione ([2]; heart, 12 hr): 57% | Glutathione level ([2]; heart, 12 hr): 0.56 µmol/g | % Decrease in glutathione ([2]; kidney, 2 hr): 82% | Glutathione level ([2]; kidney, 2 hr): 0.76 µmol/g | % Decrease in glutathione ([2]; kidney, 12 hr): 79% | Glutathione level ([2]; kidney, 12 hr): 0.75 µmol/g | % Decrease in glutathione ([2]; liver, 2 hr): 72% | Glutathione level ([2]; liver, 2 hr): 1.50 µmol/g | % Decrease in glutathione ([2]; liver, 12 hr): 32% | Glutathione level ([2]; liver, 12 hr): 3.37 µmol/g | % Decrease in glutathione ([2]; plasma, 2 hr): 66% | Glutathione level ([2]; plasma, 2 hr): 10.1 µM | % Decrease in glutathione ([2]; plasma, 12 hr): 43% | Glutathione level ([2]; plasma, 12 hr): 16.3 µM | disappeared intracellular glutathione found in the medium ([3]; CEM line, L-serine plus borate in medium): About 50% | cell viability on further decrease in glutathione level ([3]; below 0.09 mM glutathione): marked loss of viability | cell viability ([3]; cells with 0.09 mM glutathione (4% of controls)): 85% | cellular glutathione as percent of control levels ([3]; three human lymphoid cell lines, medium containing BSO, 50 hours): about 5% | reversal of resistance ([4]; glutathione depletion with BSO): Reversal of resistance can be achieved | sensitivity of resistant cells to the drugs and to radiation ([4]; glutathione depletion): significantly increases the sensitivity of the resistant cells | cure of infected mice [5]: two mice were apparently cured | survival of infected mice ([5]; versus untreated infected controls): four mice survived significantly longer
